Measured values published in patent publication US5672584A (priority 1995, dated 1997).
Like-named read-outs stand apart in the source and are kept apart here. Where a SMILES comes first, the peptide text is derived from it. Where no end group is shown, it is not given here.

How the values were obtained:
[1] = human, Caco-2
Caco-2 cell monolayer = conditions: for permeation to BL side of the monolayer: AP-to-BL, in the absence or presence of protease inhibitors (bestatin, diprotin, captopril); for increase in permeability compared to capped hexapeptide Ac-Trp-Ala-Gly-Gly-Asp-Ala-NH2: Caco-2 Papp ratio; for Papp (apparent permeability coefficient): applied to AP side, flux to BL side of Caco-2 monolayer
[2] = HBSS, pH 7.4, 37° C.
[3] = incubated in human blood, pH 7.4, 37° C.
[4] = rat, whole blood, pH 7.4
in vitro = conditions: rat, blood, pH 7.4
[5] = human, whole blood, pH 7.4

WAGGDA [Trp-Ala-Gly-Gly-Asp-Ala, reference compound]
remaining at 2 h [1]: 0.8 ± 0.1% | permeation to BL side of the monolayer (Caco-2 cell monolayer): no detectable quantities | permeation to BL side of the monolayer (Caco-2 cell monolayer; listed as native peptide): totally impermeable

C[C@@H]1NC(=O)[C@H](Cc2c[nH]c3ccccc23)NC(=O)OCOC(=O)[C@H](C)NC(=O)[C@H](CC(=O)O)NC(=O)CNC(=O)CNC1=O [1a] (HELM PEPTIDE1{W.A.G.G.D.A}|CHEM1{[O=C(OCO[*:2])[*:1]]}$PEPTIDE1,CHEM1,1:R1-1:R1|PEPTIDE1,CHEM1,6:R2-1:R2$$$V2.0)
half-life of chemical stability (T1/2) [2]: 3.47 h | T1/2 in human blood [3]: 1.65 h | half-life [4]: 1.85 h | increase in permeability compared to capped hexapeptide Ac-Trp-Ala-Gly-Gly-Asp-Ala-NH2 (Caco-2 cell monolayer): 5-6 fold | Papp (apparent permeability coefficient) (Caco-2 cell monolayer): 1.17±0.11×10^-7 cm/sec.

Cc1cc(C)c2c(c1)OC(=O)[C@H](C)NC(=O)[C@H](CC(=O)O)NC(=O)CNC(=O)CNC(=O)[C@H](C)NC(=O)[C@H](Cc1c[nH]c3ccccc13)NC(=O)CC2(C)C [1b] (HELM PEPTIDE1{W.A.G.G.D.A}|CHEM1{[Cc1cc(C)c(C(C)(C)CC(=O)[*:1])c(O[*:2])c1]}$PEPTIDE1,CHEM1,1:R1-1:R1|PEPTIDE1,CHEM1,6:R2-1:R2$$$V2.0)
half-life (in vitro): 2.88 h | half-life of chemical stability (T1/2) [2]: 12.7 h | half-life [5]: 2.88 h | increase in permeability compared to capped hexapeptide Ac-Trp-Ala-Gly-Gly-Asp-Ala-NH2 (Caco-2 cell monolayer): 5-6 fold | Papp (apparent permeability coefficient) (Caco-2 cell monolayer): 1.21±0.36×10^-7 cm/sec.

Ac-WAGGDA-NH2 [Ac-Trp-Ala-Gly-Gly-Asp-Ala-NH2, reference compound]
remaining at 3 h [1]: 75.8 ± 4% | Papp (apparent permeability coefficient) (Caco-2 cell monolayer): 2.1±0.5×10^-8 cm/sec.
